How the values were obtained:
CNV progression = assay: In vivo choroidal neovascularization (CNV) model, laser-induced, intravitreal injection; parameters: species or system Male Brown-Norway rats; conditions: rat, 10 nmol/eye injected on Day 3, CNV area on Day 10, vs vehicle; for inhibition in vivo at 10 nmol/eye: 240 h
Source text: This test measures the capacity of compounds to inhibit CNV progression. CNV is the main cause of severe vision loss in patients suffering from age-related macular degeneration (AMD).
Male Brown-Norway rats (Japan Clea Co., Ltd.) were used in these studies.
Rats were anesthetized by intraperitoneal injection of pentobarbital, and the right pupil was dilated with 0.5% tropicamide and 0.5% phenylephrine hydrochloride. The right eye received 6 laser burns between retinal vessels using a slit lamp delivery system of Green laser Photocoagulator (Nidex Inc., Japan), and microscope slide glass with Healon™ (AMO Inc) used as a contact lens. The laser power was 100 or 200 mW for 0.1 second and spot diameter was 100 μm. At the time of laser burn, bubble production was observed, which is an indication of rupture of Bruch's membrane which is important for CNV generation.
Rats were divided into the groups based on their body weight using SAS software (SAS institute Japan, R8.1) after laser irradiation (Day 0). After animals were anesthetized, and the right pupil dilated (as above mentioned), the right eye of the animal received the compound or vehicle by an injection (10 μL/eye) at doses of 10 or 3 nmol/eye on Day 3. The compounds were dissolved or suspended in CBS, PBS, or other adequate vehicles before injection.
On Day 10, the animals were anesthetized with ether, and high molecular weight fluorescein isothiocyanate (FITC)-dextran (SIGMA, 2×10^6 MW) was injected via a tail vein (20 mg/rat). About 30 min after FITC-dextran injection, animals were euthanized by ether or carbon dioxide, and the eyes were removed and fixed with 10% formaline neutral buffer solution. After over 1 hour of fixation, RPE-choroid-sclera flat mounts were obtained by removing cornea, lens and retina from the eyeballs. The flat mounts were mounted in 50% glycerol on a microscope slide, and the portion burned by laser was photographed using a fluorescence microscope (Nikon Corporation, excitation filter:465-495 nm, absorption filter:515-555 nm). The CNV area was obtained by measurement of hyper-fluorescence area observed on the photograph using Scion image.
The average CNV area of 6 burns was used as an individual value of CNV area, and the average CNV area of compound treated group was compared with that of the vehicle-treated group.

VEGFR/KDR = target: T1, VEGFR/KDR (Homo sapiens, UniProt P35968); assay: VEGFR/KDR kinase inhibition, DELFIA assay; format: biochemical; conditions: ATP 0.6 uM (2x Km), enzyme 5 nM
T1 construct: made in house; host or cells: Sf9 cells (Spodoptera frugiperda), baculovirus
Procedure, shortened: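 Enzyme (5 nM) pre-incubated 4 min on ice with inhibitor and Mg-ATP (0.6 uM, 2× Km), then reacted 10-30 min at 30° C on immobilized poly(Glu4,Tyr). EDTA-quenched phosphotyrosine detected with Europium-labeled antibody by time-resolved fluorescence; IC50 from concentration series.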

T1 sequence (P35968 806-1356): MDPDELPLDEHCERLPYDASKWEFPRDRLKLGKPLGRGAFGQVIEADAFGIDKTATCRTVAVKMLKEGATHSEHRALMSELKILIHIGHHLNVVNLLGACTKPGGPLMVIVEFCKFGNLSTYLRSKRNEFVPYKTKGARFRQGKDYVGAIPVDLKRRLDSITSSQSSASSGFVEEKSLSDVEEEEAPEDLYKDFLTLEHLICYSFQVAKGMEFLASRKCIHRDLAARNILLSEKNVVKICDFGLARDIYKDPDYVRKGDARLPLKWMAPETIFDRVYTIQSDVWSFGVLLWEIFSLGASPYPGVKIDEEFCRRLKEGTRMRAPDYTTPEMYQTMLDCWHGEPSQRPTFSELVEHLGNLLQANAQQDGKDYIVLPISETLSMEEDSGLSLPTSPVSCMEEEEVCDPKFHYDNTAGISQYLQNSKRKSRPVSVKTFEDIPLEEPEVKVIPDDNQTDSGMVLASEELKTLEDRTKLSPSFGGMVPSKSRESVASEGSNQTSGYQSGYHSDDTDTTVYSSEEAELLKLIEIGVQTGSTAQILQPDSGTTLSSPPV

Molecule | IC50 (VEGFR/KDR) [nM] | Inhibition of CNV progression (CNV progression) | inhibition in vivo at 10 nmol/eye (CNV progression) [%]
2-cyclopropyl-N-(3-fluoro-4-(2-(5-((N- (2-methoxyethyl)-acetamido)methyl)pyridin-2- yl)thieno[3,2-b]-pyridin-7-yloxy)phenyl)-acetamide [Compound 42] | – | A (greater than or equal to 60% inhibition) | –
CNC(=O)N(CCOC)Cc1ccc(-c2cc3nccc(Oc4ccc(NC(=O)NC5CC5)cc4F)c3s2)nc1 [Compound 3, N-[3-((6-(7-(4-(3-cyclopropylureido)-2-fluorophenoxy)thieno[3,2-b]pyridin-2-yl)pyridin-3-yl)methyl)]-N-(1-methyl)-N-[3-(2-methoxyethyl)]urea] | < 50 | A (greater than or equal to 60% inhibition) | –
COCCOCCOCCOCCN(Cc1ccc(-c2cc3nccc(Oc4ccc(NC(=O)NC5CC5)cc4F)c3s2)nc1)C(=O)CO [Compound 45] | < 50 | – | 40 to 60
O=C(Nc1ccc(Oc2ccnc3cc(-c4ccc(CN5CCNCC5)cn4)sc23)c(F)c1)NC1CC1 [Compound 49, 1-cyclopropyl-3-(3-fluoro-4-(2-(5-(piperazin-1-ylmethyl)pyridin-2-yl)thieno[3,2-b]-pyridin-7-yloxy)phenyl)urea] | < 50 | – | ≥ 60
CN1CCN(Cc2ccc(-c3cc4nccc(Oc5ccc(NC(=O)NC6CC6)cc5F)c4s3)nc2)CC1 [Compound 51, 1-cyclopropyl-3-(3-fluoro-4-(2-(5-((4-methylpiperazin-1-yl)methyl)pyridin-2-yl)thieno[3,2-b]-pyridin-7-yloxy)phenyl)urea] | < 50 | – | ≥ 60
O=C(Nc1ccc(Oc2ccnc3cc(-c4ccc(CN5CCN(CCO)CC5)cn4)sc23)c(F)c1)NC1CC1 [Compound 55, 1-cyclopropyl-3-(3-fluoro-4-(2-(5-((4-(2-hydroxyethyl)piperazin-l-yl)methyl)pyridin-2-yl)thieno[3,2-b]-pyridin-7-yloxy)phenyl)urea] | < 50 | – | 40 to 60
O=C(Nc1ccc(Oc2ccnc3cc(-c4ccc(C(=O)N5CCN(C(=O)CO)CC5)cn4)sc23)c(F)c1)NC1CC1 [Compound 584] | < 50 | – | –
COCCOCCOCC(=O)N1CCN(Cc2ccc(-c3cc4nccc(Oc5ccc(NC(=O)NC6CC6)cc5F)c4s3)nc2)CC1 [Compound 588, 1-Cyclopropyl-3-(3-fluoro-4-(2-(5-((4-(2-(2-(2-methoxyethoxy)ethoxy)acetyl)piperazin-1-yl)methyl)pyridin-2-yl)thieno[3,2-b]pyridin-7-yloxy)phenyl)urea] | < 50 | – | –
COCCOCC(=O)N1CCN(Cc2ccc(-c3cc4nccc(Oc5ccc(NC(=O)NC6CC6)cc5F)c4s3)nc2)CC1 [Compound 589] | < 50 | – | –
COCCOCCOCCNC(=O)N1CCN(Cc2ccc(-c3cc4nccc(Oc5ccc(NC(=O)NC6CC6)cc5F)c4s3)nc2)CC1 [Compound 596, 4-((6-(7-(4-(3-Cyclopropylureido)-2-fluorophenoxy)thieno[3,2-b]pyridin-2-yl)pyridin-3-yl)methyl)-N-(2-(2-(2-methoxyethoxy)ethoxy)ethyl)piperazine-1-carboxamide] | < 50 | – | –
O=C(Nc1ccc(Oc2ccnc3cc(-c4ccc(CN5CCC(O)CC5)cn4)sc23)c(F)c1)NC1CC1 [Compound 599, 1-Cyclopropyl-3-(3-fluoro-4-(2-(5-((4-hydroxypiperidin-1-yl)methyl)pyridin-2-yl)thieno[3,2-b]pyridin-7-yloxy)phenyl)urea] | < 50 | – | –
CC(=O)N(Cc1ccc(-c2cc3nccc(Oc4ccc(NC(=O)NC5CC5)cc4F)c3s2)nc1)C1CCNCC1 [Compound 609, N-((6-(7-(4-(3-Cyclopropylureido)-2-fluorophenoxy)thieno[3,2-b]pyridin-2-yl)pyridin-3-yl)methyl)-N-(piperidin-4-yl)acetamide] | < 50 | – | –
COCCNCCn1cnc(-c2cc3nccc(Oc4ccc(NC(=O)NC5CC5)cc4F)c3s2)c1 [compound 253] | < 50 | – | –
(S)-1-(4-(2-(5-((3-amino-2-oxopyrrolidin-1-yl)methyl)pyridin-2-yl)thieno[3,2-b]pyridin-7-yloxy)-3-fluorophenyl)-3-cyclopropylurea [Compound 108] | – | A (greater than or equal to 60% inhibition) | –
N-(4-(7-(4-(3-cyclopropylureido)-2-fluorophenoxy)thieno[3,2-b]pyridin-2-yl)benzyl)-2-(2-methoxyethoxy)-N-(2-methoxyethyl)acetamide [Compound 115] | < 50 | – | –
N-((6-(7-(4-(3-cyclopropylureido)-2-fluorophenoxy)thieno[3,2-b]pyridin-2-yl)pyridin-3-yl)methyl)-N-(2-methoxyethyl)formimidamide [Compound 7] | – | B (≧40% to <60% inhibition) | –

Second part, led by results:

IC50 (VEGFR/KDR) [nM] | Molecule | Inhibition of CNV progression (CNV progression) | inhibition in vivo at 10 nmol/eye (CNV progression) [%]
< 50 | COCCN(Cc1ccc(-c2cc3nccc(Oc4ccc(NC(=O)NC5CC5)cc4F)c3s2)nc1)C(N)=O [Compound 5, N-[3-((6-(7-(4-(3-cyclopropylureido)-2-fluorophenoxy)thieno[3,2-b]pyridin-2-yl)pyridin-3-yl)methyl)]-N-[3-(2-methoxyethyl)]urea] | – | 40 to 60
< 50 | COCCN(C=N)Cc1ccc(-c2cc3nccc(Oc4ccc(NC(=O)NC5CC5)cc4F)c3s2)nc1 [Compound 7, N-((6-(7-(4-(3-cyclopropylureido)-2-fluorophenoxy)thieno[3,2-b]pyridin-2-yl)pyridin-3-yl)methyl)-N-(2-methoxyethyl)formimidamide] | – | ≥ 60
< 50 | O=C(Nc1ccc(Oc2ccnc3cc(-c4ccc(CNCCO)cn4)sc23)c(F)c1)NC1CC1 [Compound 9, 1-cyclopropyl-3-(3-fluoro-4-(2-(5-((2-hydroxyethylamino)methyl)pyridin-2-yl)-thieno[3,2-b]pyridin-7-yloxy)phenyl)urea] | – | ≥ 60
< 50 | COCCNCc1ccc(-c2cc3nccc(Oc4ccc(NC(=O)NC5CC5)c(F)c4F)c3s2)nc1 [Compound 25, 1-cyclopropyl-3-(2,3-difluoro-4-(2-(5-((2-methoxyethylamino)methyl)pyridin-2-yl)thieno[3,2-b]pyridin-7-yloxy)phenyl)urea] | – | ≥ 60
< 50 | CCNC(=O)N(CCOCCOCCOCCOC)Cc1ccc(-c2cc3nccc(Oc4ccc(NC(=O)NC5CC5)cc4F)c3s2)nc1 [Compound 36, N-[3-((6-(7-(4-(3-cyclopropylureido)-2-fluorophenoxy)-thieno[3,2-b]-pyridin-2-yl)pyridin-3-yl)methyl)]-N-(1-ethyl)-N-[3-(2,5,8,11-tetraoxatridecan-13-yl)]urea] | – | 40 to 60
< 50 | COCCN(CCc1ccc(-c2cc3nccc(Oc4ccc(NC(=O)NC5CC5)cc4F)c3s2)nc1)C(C)=O [Compound 41, N-(2-(6-(7-(4-(3-cyclopropylureido)-2-fluorophcnoxy)-thieno[3,2-b]-pyridin-2-yl)pyridin-3-yl)ethyl)-N-(2-methoxyethyl)-acetamide] | – | 40 to 60
< 50 | CC(=O)N(CCS(C)(=O)=O)Cc1ccc(-c2cc3nccc(Oc4ccc(NC(=O)NC5CC5)cc4F)c3s2)nc1 [Compound 43, N-((6-(7-(4-(3-cyclopropylureido)-2-fluorophenoxy)thieno[3,2-b]pyridin-2-yi)pyridin-3-yl)methyl)-N-(2-(methylsulfonyl)ethyl)acetamide] | – | 40 to 60

From US8906852B2 (MethylGene Inc., priority 2010, dated 2014)
